This note sets out measurements from ChEMBL document CHEMBL5241118, “4-Aminopyrazolopyrimidine scaffold and its deformation in the design of tyrosine and serine/threonine kinase inhibitors in medicinal chemistry” (RSC Med Chem, 2022).

For one series, the system named is JeKo-1. In words: Antiproliferative activity against human JeKo-1 cells assessed as reduction cell viability measured after 24 hrs by Cell Titer-Glo Luminescent Cell Viability Assay. It is filed as functional, cell-based. Conditions: JeKo-1, 24 h. On the technique in general: Cellular ATP, detected with luciferase, serves as a proxy for viable cell number.
Another series deals with Z-138. In words: Antiproliferative activity against human Z138 cells assessed as reduction cell viability measured after 24 hrs by Cell Titer-Glo Luminescent Cell Viability Assay. In kind it is functional, cell-based. Conditions: Z-138, 24 h.
The nature of series [1]: Antiproliferative activity against human MINO cells assessed as reduction cell viability measured after 24 hrs by Cell Titer-Glo Luminescent Cell Viability Assay. It is filed as functional, cell-based.
The next series deals with Maver1. In words: Antiproliferative activity against human MAVER-1 cells assessed as reduction cell viability measured after 24 hrs by Cell Titer-Glo Luminescent Cell Viability Assay. It is filed as functional, cell-based. Conditions: Maver1, 24 h.
Series [2] has as its target T1, Phosphatidylinositol 4,5-bisphosphate 3-kinase catalytic subunit delta isoform (Homo sapiens, UniProt O00329).
T1 sequence (O00329 whole entry): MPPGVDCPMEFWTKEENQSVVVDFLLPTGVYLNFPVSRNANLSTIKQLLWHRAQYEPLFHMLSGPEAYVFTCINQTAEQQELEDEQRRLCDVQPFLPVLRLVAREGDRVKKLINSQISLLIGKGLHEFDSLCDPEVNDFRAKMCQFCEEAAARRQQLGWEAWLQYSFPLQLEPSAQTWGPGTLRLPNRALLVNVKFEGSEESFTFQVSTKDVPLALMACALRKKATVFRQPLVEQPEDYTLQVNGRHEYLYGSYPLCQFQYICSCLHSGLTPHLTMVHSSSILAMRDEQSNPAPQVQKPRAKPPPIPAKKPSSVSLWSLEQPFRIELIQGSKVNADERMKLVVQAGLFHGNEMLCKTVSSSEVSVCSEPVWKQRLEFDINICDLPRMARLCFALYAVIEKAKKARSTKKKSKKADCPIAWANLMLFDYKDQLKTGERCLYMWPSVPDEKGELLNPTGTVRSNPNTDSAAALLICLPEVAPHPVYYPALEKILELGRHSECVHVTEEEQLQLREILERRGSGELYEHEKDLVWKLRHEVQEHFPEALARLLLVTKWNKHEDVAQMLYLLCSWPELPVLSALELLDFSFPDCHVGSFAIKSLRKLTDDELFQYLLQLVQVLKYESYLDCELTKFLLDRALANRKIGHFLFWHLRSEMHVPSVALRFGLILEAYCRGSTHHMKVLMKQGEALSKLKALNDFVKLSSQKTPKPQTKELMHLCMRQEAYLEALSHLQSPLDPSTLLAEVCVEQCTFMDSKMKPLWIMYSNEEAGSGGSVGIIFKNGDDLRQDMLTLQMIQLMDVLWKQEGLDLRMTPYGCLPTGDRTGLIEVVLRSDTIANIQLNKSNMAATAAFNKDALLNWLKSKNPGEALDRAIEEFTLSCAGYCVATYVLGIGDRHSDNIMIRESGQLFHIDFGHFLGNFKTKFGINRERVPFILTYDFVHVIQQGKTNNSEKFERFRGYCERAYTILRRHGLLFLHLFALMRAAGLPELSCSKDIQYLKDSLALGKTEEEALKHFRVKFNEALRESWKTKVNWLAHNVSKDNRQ
In words: Inhibition of PI3Kdelta (unknown origin) at 1 uM.

Series [3] addresses Receptor tyrosine-protein kinase erbB-3 (Homo sapiens, UniProt P21860). In words: Inhibition of HER3 (unknown origin).
Series [4] can be described thus: in vitro. Conditions: human, liver microsomes. In general terms: Liver microsomes are vesicles of endoplasmic reticulum, rich in cytochrome P450 enzymes.
Description: Clearance in human liver microsomes
Series [5] concerns the target Tyrosine-protein kinase BTK (Homo sapiens, UniProt Q06187). In words: Inhibition of BTK (unknown origin) in the presence of ATP measured after 40 mins by radiometry analysis.
Series [6] is described as follows: in vitro. Conditions: human, liver microsomes. This is another data set of the same source.
Description: Half life in human liver microsomes
Series [7] addresses Epidermal growth factor receptor (Homo sapiens, UniProt P00533). In words: Inhibition of wild type EGFR (unknown origin).
The target of series [8] is Epidermal growth factor receptor (Homo sapiens, UniProt P00533, L858R). In words: Inhibition of EGFR L858R mutant (unknown origin).
Series [9] concerns the target Epidermal growth factor receptor (Homo sapiens, UniProt P00533, L858R/T790M). In words: Inhibition of EGFR L858R/T790M mutant (unknown origin).
For series [10], the system named is NCI-H1581. In words: animal or person. Conditions: Mus musculus, BALB/c, NCI-H1581, 480 h, read-out: TGI.
Description: Antitumor activity against human NCI-H1581 cells xenografted in BALB/c mouse assessed as tumor growth inhibition at 50 mg/kg, ip administered once daily for 20 days measured after 32 days by LC_MS/MS analysis relative to control
The next series has as its system BaF3. In words: cells. Conditions: Mus musculus, BaF3, 72 h.
Series [11] is described as follows: AUC (0 to t) in CD1 mouse at 1 mg/kg, iv by LC-MS/MS analysis. It is filed as ADME, organism-based. Further details: dose 1 mg/kg, route iv. Conditions: in vivo.
Series [12] relates to NCI-H1581. In words: animal or person. Conditions: Mus musculus, BALB/c, NCI-H1581, 480 h, read-out: TGI. This is another data set of the same source.
Description: Antitumor activity against human NCI-H1581 cells xenografted in BALB/c mouse assessed as tumor growth inhibition at 10 mg/kg, ip administered once daily for 20 days measured after 32 days by LC_MS/MS analysis relative to control
Series [13] in a line: Half life in CD1 mouse at 1 mg/kg, iv by LC-MS/MS analysis. Conditions: in vivo. In kind it is ADME, organism-based.
Series [14] in a line: AUC (0 to t) in CD1 mouse at 3 mg/kg, ip by LC-MS/MS analysis. In kind it is ADME, organism-based. Conditions: in vivo. Further details: dose 3 mg/kg, route ip.
Series [15] can be described thus: Half life in CD1 mouse at 3 mg/kg, ip by LC-MS/MS analysis. Conditions: in vivo. It is filed as ADME, organism-based.
The target in series [16] is Vascular endothelial growth factor receptor 2 (Homo sapiens, UniProt P35968). In words: Inhibition of VEGFR2 (unknown origin).
In series [17] the target is Fibroblast growth factor receptor 3 (Homo sapiens, UniProt P22607). In words: Inhibition of FGFR3 (unknown origin).
The subject of another series is MV4-11. In words: Antitumor activity against human MV4-11 cells xenografted in athymic nu/nu mouse model assessed as tumor growth inhibition at 50 mg/kg administered a day measured after 14 days relative to control. Conditions: MV4-11, 336 h, time 14 day, read-out: TGI. In kind it is functional. A general note: A xenograft is tissue or cells of one species grown in another, often human tumour cells in immunodeficient mice.

The target in series [18] is Epidermal growth factor receptor (Homo sapiens, UniProt P00533, C797S/T790M). In words: Inhibition of EGFR T790M/C797S mutant (unknown origin).
Series [19] can be described thus: Inhibition of human recombinant 1R assessed as inhibition in the presence of ATP at 100 uM/l by ELISA method.
In another series the test system is MCF7. In words: Antitumor activity against human MCF7 cells xenografted in LISN nude mouse model assessed as reduction in tumor growth at 75 mg/kg, po administered once daily for 30 days relative to control. It is filed as functional. Conditions: MCF7, 720 h, time 30 day, read-out: TGI.
Series [20] can be described thus: Tumor growth inhibition in CD1 mouse at 5 to 250 mg/kg. Conditions: in vivo, po.
The next series relates to Hep 3B2. In words: animal or person. Conditions: Mus musculus, Hep3B, 336 h, read-out: TGI.
Another series in a line: animal or person. It is filed as functional. Conditions: Homo sapiens, HCC, 336 h, time 14 day, read-out: TGI.

Structures are written as SMILES.

Epidermal growth factor receptor (Homo sapiens, UniProt P00533), sequence (P00533 whole entry): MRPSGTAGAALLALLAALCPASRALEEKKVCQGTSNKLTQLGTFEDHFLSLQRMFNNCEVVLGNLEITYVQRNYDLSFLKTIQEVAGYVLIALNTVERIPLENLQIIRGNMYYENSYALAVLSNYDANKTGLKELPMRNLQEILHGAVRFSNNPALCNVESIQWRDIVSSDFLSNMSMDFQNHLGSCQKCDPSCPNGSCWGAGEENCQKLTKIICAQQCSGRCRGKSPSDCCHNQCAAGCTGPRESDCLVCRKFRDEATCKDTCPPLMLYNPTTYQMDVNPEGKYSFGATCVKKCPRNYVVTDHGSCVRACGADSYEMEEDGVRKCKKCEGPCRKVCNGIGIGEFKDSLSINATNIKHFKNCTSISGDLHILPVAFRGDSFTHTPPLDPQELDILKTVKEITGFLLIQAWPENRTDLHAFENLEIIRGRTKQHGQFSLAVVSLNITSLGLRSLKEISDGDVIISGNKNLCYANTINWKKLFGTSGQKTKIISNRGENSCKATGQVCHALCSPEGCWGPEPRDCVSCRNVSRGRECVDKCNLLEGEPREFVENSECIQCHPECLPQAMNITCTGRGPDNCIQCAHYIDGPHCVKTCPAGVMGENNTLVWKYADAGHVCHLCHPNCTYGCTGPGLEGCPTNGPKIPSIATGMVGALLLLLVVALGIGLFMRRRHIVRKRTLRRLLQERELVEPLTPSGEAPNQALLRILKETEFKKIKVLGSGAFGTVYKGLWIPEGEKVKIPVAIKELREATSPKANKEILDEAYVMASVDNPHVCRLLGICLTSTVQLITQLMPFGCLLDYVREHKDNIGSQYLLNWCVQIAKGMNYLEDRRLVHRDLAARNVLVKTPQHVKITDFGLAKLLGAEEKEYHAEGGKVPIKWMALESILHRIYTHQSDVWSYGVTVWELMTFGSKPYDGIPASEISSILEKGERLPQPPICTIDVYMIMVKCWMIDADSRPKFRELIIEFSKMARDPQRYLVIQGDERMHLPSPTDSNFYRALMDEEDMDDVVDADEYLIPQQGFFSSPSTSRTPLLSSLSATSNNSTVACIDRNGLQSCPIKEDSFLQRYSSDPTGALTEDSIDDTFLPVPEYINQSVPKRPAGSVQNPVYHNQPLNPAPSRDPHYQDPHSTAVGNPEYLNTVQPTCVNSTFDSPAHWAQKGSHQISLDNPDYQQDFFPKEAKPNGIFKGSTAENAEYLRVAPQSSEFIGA
Epidermal growth factor receptor (Homo sapiens, UniProt P00533, L858R), sequence (P00533 25-1210 L858R limits assumed): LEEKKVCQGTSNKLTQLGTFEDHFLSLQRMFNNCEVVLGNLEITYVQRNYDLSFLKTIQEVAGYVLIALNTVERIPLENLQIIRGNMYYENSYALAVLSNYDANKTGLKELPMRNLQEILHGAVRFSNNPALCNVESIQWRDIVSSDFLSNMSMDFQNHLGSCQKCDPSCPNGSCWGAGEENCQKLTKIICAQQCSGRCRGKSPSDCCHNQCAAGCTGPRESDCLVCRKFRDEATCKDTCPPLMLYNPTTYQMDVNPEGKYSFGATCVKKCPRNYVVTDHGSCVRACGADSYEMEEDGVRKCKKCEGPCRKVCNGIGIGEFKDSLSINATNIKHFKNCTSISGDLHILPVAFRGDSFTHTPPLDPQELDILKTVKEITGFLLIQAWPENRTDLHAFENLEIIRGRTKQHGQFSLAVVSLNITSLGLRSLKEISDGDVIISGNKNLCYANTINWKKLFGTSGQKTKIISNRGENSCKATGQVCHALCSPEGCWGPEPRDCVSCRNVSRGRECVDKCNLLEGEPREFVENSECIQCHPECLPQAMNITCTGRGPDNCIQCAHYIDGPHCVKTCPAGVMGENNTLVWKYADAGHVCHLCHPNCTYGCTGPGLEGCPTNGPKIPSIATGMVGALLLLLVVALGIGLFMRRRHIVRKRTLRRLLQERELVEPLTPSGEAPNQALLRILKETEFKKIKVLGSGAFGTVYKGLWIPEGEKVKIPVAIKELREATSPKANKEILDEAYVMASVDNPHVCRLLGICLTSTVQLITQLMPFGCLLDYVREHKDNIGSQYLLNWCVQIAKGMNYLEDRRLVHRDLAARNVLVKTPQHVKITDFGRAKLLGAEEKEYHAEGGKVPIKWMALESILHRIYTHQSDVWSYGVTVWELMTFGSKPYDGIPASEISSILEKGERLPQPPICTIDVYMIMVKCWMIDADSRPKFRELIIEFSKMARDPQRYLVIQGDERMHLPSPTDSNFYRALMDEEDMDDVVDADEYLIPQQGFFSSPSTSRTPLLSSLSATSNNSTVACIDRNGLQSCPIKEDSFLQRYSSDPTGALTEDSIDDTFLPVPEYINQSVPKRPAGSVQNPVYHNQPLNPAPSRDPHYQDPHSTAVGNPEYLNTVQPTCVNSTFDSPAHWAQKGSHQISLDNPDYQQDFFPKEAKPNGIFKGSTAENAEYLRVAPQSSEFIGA
Receptor tyrosine-protein kinase erbB-3, sequence (P21860 whole entry): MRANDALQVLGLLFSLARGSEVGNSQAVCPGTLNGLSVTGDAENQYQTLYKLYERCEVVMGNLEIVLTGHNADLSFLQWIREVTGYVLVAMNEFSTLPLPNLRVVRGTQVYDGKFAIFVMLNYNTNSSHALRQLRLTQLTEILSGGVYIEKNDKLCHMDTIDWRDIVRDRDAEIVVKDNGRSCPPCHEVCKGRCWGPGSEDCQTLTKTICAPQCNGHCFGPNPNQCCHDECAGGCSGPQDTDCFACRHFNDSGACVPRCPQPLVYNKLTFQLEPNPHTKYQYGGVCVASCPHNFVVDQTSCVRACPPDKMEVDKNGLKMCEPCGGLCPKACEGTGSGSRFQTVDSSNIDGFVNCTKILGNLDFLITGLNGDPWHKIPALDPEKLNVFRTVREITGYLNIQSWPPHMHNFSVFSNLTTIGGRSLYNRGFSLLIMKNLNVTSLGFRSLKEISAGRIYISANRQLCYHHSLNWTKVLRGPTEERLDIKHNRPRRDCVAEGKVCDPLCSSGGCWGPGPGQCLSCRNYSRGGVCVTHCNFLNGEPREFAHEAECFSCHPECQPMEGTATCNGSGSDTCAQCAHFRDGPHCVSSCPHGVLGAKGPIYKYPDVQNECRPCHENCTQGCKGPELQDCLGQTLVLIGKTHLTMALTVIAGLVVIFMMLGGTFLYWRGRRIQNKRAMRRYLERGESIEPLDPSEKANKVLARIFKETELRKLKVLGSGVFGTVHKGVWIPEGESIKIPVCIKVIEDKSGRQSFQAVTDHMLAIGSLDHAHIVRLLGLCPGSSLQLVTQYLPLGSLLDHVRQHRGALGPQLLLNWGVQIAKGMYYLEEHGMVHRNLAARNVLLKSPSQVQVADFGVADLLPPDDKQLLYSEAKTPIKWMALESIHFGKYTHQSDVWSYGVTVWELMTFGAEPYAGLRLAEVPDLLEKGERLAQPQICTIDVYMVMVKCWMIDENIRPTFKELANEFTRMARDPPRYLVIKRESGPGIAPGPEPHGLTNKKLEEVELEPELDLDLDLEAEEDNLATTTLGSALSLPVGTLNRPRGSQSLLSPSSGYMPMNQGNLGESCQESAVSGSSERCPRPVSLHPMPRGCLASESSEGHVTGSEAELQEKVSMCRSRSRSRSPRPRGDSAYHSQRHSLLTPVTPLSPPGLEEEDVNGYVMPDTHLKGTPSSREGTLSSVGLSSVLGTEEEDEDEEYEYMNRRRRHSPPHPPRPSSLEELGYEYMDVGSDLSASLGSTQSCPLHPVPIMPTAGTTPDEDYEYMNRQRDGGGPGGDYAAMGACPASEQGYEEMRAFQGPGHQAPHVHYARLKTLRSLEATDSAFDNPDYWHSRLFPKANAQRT
Epidermal growth factor receptor (Homo sapiens, UniProt P00533, L858R/T790M), sequence (P00533 25-1210 T790M/L858R limits assumed): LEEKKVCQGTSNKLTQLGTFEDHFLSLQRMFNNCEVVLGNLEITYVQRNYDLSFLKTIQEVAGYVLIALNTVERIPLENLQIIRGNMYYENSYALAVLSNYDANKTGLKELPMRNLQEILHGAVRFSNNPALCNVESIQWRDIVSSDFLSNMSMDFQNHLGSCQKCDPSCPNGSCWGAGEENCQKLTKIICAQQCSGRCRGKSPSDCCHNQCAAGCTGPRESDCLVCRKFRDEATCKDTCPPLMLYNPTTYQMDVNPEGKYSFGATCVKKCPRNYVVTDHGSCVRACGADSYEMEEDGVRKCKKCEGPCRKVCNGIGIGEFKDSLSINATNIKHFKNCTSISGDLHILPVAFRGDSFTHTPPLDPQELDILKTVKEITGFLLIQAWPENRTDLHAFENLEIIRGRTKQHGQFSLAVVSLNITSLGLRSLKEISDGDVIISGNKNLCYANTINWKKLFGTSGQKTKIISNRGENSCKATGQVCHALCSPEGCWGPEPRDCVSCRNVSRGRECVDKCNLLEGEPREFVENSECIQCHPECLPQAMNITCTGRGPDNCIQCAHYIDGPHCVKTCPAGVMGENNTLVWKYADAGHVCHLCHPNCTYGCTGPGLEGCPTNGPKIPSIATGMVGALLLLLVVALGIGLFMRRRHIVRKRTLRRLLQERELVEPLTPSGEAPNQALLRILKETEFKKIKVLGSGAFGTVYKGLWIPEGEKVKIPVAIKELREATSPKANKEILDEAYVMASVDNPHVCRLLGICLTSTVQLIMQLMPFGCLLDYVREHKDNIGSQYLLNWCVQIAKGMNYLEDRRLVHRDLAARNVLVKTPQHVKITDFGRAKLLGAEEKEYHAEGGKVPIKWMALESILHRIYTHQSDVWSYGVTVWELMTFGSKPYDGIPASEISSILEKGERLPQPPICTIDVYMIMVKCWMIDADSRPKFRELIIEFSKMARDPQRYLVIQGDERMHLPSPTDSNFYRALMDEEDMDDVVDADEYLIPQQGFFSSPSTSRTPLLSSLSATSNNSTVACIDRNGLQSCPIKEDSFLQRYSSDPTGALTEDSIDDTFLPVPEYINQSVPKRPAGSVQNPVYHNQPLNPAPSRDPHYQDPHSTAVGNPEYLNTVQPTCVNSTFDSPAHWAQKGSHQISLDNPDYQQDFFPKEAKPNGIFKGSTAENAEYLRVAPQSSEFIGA
Description for BaF3: Antiproliferative activity against mouse BaF3/TEL-FGFR1 cells measured after 72 hrs by CCK8 assay
Description for Hep 3B2: Antitumor activity against human Hep3B cells xenografted in athymic nu/nu mouse model assessed as tumor growth inhibition at 50 mg/kg measured after 14 days relative to control

In general, IC50 refers to the concentration that gives 50% inhibition. Regarding `C=CC(=O)N1CCC[C@@H](n2nc(-c3ccc(Oc4ccccc4)cc3)c3c(N)ncnc32)C1` [IBRUTINIB], the 50% inhibitory concentration (IC50) was found to be 1.1 µM in the series on JeKo-1, 9.7 µM in the series with Z-138, 15.7 µM in series [1] and 7.8 µM in the series with Maver1.
Molecule `Nc1ncnc2c1c(-c1cc(O)c(Br)c(F)c1)nn2C1CCc2ccccc2C1` (centres undefined) registered a half-maximal inhibitory concentration (IC50) in [2] of 0.00027 µM.
In turn, `C=CC(=O)Nc1cc(-c2nn(C3CCN(CCNC(=O)[C@H](C)CCC45CC6CC(CC(C6)C4)C5)CC3)c3ncnc(N)c23)ccc1OCc1ccccc1` displayed an IC50 in series [3] of 0.049 µM.
One may read the microsomal CLint as the capacity of the preparation to metabolise the compound, expressed as a volume cleared per time. Low readings indicate slow turnover, high ones rapid turnover. The half-life is the time in which the quantity being followed falls by half. The low end stands for rapid decline, the high end for slow decline. `Nc1ncnc2c1c(-c1ccc(Oc3ccccc3)nc1)nn2[C@@H]1CCCN(C(=O)CCl)C1`: the intrinsic metabolic clearance (microsomal CLint) in “in vitro [4]” stood at 82.5 µL/min/mg. In addition, the half-inhibitory concentration (IC50) came to 0.4 µM in the series on JeKo-1; 0.4 µM with Z-138; 0.036 µM in series [5]; 0.4 µM in [1]; 0.4 µM with Maver1. The molecule also yielded a half-life in the series “in vitro [6]” of 0.28 h.
Turning to `N#C/C(=C/C(=O)N1CCC[C@@H](n2nc(-c3cnc4[nH]ccc4c3)c3c(N)ncnc32)C1)C1CC1`, the 50% inhibitory concentration (IC50) in series [7] was 0.013 µM; in series [8] it was 0.002 µM; in [9], 0.0027 µM.
Consider `Cc1ccc2oc(-c3c4c(N)n[nH]c(=O)c4nn3-c3ccc(NC(=O)/C=C/CN(C)C)cc3)c(C)c2c1`, for which, in the series with NCI-H1581 [10], the inhibition in vivo at 50 mg/kg was found to be 91.6%. In addition, in the series with BaF3, the 50% inhibitory concentration (IC50) was less than 0.0003 µM. The AUCt in [11] was found to be 281 ng·h/mL; in series [14], 704 ng·h/mL. Also, the inhibition in vivo at 10 mg/kg in the series with NCI-H1581 [12] was determined as 74.4%. Besides, the half-life was 1.39 h in series [13] and 3.7 h in series [15].
For `C#CCO[C@@H]1[C@H](C)[C@@H](COC(=O)c2ccc(S(=O)(=O)F)cc2)O[C@H]1n1nc(-c2ccc(C)cc2)c2c(N)ncnc21`, the IC50 in series [16] is 0.475 µM; in [17], 0.0016 µM.
`Nc1ncnc2c1c(-c1cc(O)c(Br)c(F)c1)nn2[C@H]1CCc2ccccc21` yielded an IC50 in [2] of 0.001 µM.
Consider `CN(C)CC(=O)N1CCC[C@@H](n2nc(-c3ccc(Oc4ccccc4)cc3)c3c(N)ncnc32)C1`, for which, in the series with MV4-11, the inhibition in vivo at 50 mg/kg came to 88%.
Consider `C=CC(=O)N1CCC[C@@H](n2nc(-c3cn(C)c4ccccc34)c3c(N)ncnc32)C1`, for which the IC50 in series [7] came out at 0.058 µM; in series [18] it was 0.0019 µM.
As usually defined, the TGI is how far tumour growth fell short of that in controls. Turning to `C[C@]1(O)C[C@@H](c2nc(-c3ccc4ccc(-c5ccccc5)nc4c3)c3c(N)nccn32)C1` [LINSITINIB], the half-maximal inhibitory concentration (IC50) in series [19] amounted to 0.075 µM. The inhibition in vivo at 75 mg/kg with MCF7 was determined as 100%. The same molecule returned a tumour growth inhibition (TGI) in series [20] of more than 84%.
Consider `C=CC(=O)N1CC[C@H](n2nc(C#Cc3cc(OC)cc(OC)c3)c3c(N)ncnc32)C1` [FUTIBATINIB], for which the inhibition in vivo at 50 mg/kg was determined as 42% in the series on Hep 3B2 and 29.8% in “animal or person”.
